According to patent publication US9938261B2, “Heterocyclic compounds and methods of use thereof” (AMBIT BIOSCIENCES CORPORATION, priority 2011, dated 2018):
One block for each molecule: values may come before it.

What was measured:
CSF1R [1] = biological target: T1, CSF1R (Homo sapiens, UniProt P07333); experiment: HEK293 CSF1R phosphorylation MSD assay; type: cell-based; parameters: expressed in transfected cells; host or cells: HEK293; conditions: HEK293 cells, M-CSF stimulated CSF1R phosphorylation, MSD; read-out: HEK293 pCSF1R M-CSF MSD:IC50
T1 sequence (P07333 20-972): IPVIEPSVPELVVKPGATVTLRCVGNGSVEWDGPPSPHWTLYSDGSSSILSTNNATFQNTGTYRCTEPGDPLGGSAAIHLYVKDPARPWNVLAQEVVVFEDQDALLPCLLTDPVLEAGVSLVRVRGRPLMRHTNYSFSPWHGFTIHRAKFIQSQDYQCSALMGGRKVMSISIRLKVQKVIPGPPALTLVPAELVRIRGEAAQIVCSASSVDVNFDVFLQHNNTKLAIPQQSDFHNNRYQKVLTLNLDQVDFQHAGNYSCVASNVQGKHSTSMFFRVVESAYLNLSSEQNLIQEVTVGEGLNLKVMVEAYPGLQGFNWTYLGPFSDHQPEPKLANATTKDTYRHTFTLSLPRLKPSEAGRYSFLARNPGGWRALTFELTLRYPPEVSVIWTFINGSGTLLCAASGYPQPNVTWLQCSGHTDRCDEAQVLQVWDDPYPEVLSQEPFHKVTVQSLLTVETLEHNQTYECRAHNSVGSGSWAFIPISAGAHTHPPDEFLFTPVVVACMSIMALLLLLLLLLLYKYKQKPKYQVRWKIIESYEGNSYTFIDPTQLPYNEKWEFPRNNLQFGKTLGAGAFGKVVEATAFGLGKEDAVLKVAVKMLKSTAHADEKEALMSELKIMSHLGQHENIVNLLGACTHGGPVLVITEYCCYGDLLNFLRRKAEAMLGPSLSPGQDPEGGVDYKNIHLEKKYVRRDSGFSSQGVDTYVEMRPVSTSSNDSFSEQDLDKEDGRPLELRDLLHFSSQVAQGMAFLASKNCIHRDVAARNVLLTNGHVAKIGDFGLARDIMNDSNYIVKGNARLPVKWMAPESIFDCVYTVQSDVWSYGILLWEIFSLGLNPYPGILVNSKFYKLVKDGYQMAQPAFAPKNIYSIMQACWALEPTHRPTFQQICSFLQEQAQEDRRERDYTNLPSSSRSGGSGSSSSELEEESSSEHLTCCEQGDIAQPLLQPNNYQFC
Procedure, shortened: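 Ligand-induced CSF1R autophosphorylation was measured by MSD sandwich assay: CSF1R-FKBP from lysates captured via FK506, anti-phosphotyrosine readout. Cells were exposed to compound for 2 h (9-point, half-log, 0.5% DMSO) before 5 min 50 ng/mL M-CSF. Reported IC50 is the mean of duplicate-plate IC50s relative to DMSO control.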

M-NFS-60 cells = experiment: M-NFS-60 cell proliferation assay (Alamar Blue); type: cell-based, mouse; conditions: Mus musculus; M-NFS-60 cell proliferation; read-out: CSF1R M-NFS-60 CTB:IC50
Procedure, shortened: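 Alamar Blue reduction (3 h; 560/590 nm) measured viability after 72 h, 37 °C treatment with nine half-log compound concentrations at 0.5% DMSO. Cells: M-CSF-dependent (20 ng/mL) murine M-NFS-60 in RPMI plus 10% FBS. IC50s, averaged from duplicates, reflect half-maximal inhibition of proliferation relative to control.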

CSF1R [2] = biological target: T1, CSF1R; experiment: Competition binding assay, CSF1R Kd; parameters: made in house; conditions: competition binding
Procedure, shortened: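 Read-out is quantitative PCR of kinase recovered from affinity beads after competition with test compound. Binding reached equilibrium over 1 hour at room temperature; Kd values come from eleven-point threefold serial dilutions.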

[3] = biological target: kinase panel containing either 386 or 392 distinct kinases; experiment: Kinase selectivity score S10 from competition binding panel; conditions: 10 μM, panel of 386 or 392 distinct kinases
Procedure, shortened: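 S10 is the number of kinases with percent-of-control under 10, divided by all distinct wild-type kinases tested, from a single 10 μM concentration. Binding measured by qPCR of kinase recovered from ligand-coated beads after 1 h equilibrium at room temperature; kinases were phage fusions or DNA-tagged HEK-293 products.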

SMILES: CC(C)(O)C#Cc1cnc2c(c1)ncn2Cc1ccc2nc(N[C@@H]3CCCC[C@H]3O)sc2c1 [Example 104, (1R,2R)-2-((6-((6-(3-hydroxy-3-methylbut-1-yn-1-yl)-3H-imidazo[4,5-b]pyridin-3-yl)methyl)benzo[d]thiazol-2-yl)amino)cyclohexanol]
IC50 (CSF1R [1]): ≤ 50 nM
IC50 (M-NFS-60 cells): ≤ 50 nM
Kd (CSF1R [2]): ≤ 5 nM
Kinase specificity S(10) [3]: A (A≤0.01)

SMILES: O[C@@H]1CCCC[C@H]1Nc1nc2ccc(Cn3cnc4cnc(C(F)(F)F)nc43)cc2s1 [Example 105, (1R,2R)-2-((6-((2-(trifluoromethyl)-9H-purin-9-yl)methyl)benzo[d]thiazol-2-yl)amino)cyclohexanol]
IC50 (CSF1R [1]): 200 to 500 nM
IC50 (M-NFS-60 cells): 400 to 1500 nM
Kd (CSF1R [2]): 5 to 20 nM
Kinase specificity S(10) [3]: A (A≤0.01)

SMILES: O[C@@H]1CCCC[C@H]1Nc1nc2ccc(Cc3cnc4ccc(Br)nn34)cc2s1 [Example 177, (1R,2R)-2-((6-((6-bromoimidazo[1,2-b]pyridazin-3-yl)methyl)benzo[d]thiazol-2-yl)amino)cyclohexanol]
IC50 (CSF1R [1]): ≤ 50 nM
IC50 (M-NFS-60 cells): ≤ 50 nM
Kd (CSF1R [2]): ≤ 5 nM
Kinase specificity S(10) [3]: C (C>0.02)

SMILES: CN1CCN(c2ccc3ncc(Cc4ccc5nc(N[C@@H]6CCCC[C@H]6O)sc5c4)n3n2)CC1 [Example 178, (1R,2R)-2-((6-((6-(4-methylpiperazin-1-yl)imidazo[1,2-b]pyridazin-3-yl)methyl)benzo[d]thiazol-2-yl)amino)cyclohexanol]
IC50 (CSF1R [1]): 200 to 500 nM
IC50 (M-NFS-60 cells): 400 to 1500 nM
Kd (CSF1R [2]): 5 to 20 nM
Kinase specificity S(10) [3]: B (0.01<B≤0.02)

SMILES: OC[C@H]1CC[C@H](Nc2nc3ccc(Cn4cnc5cc(F)cnc54)cc3s2)CC1 [Example 179, (trans-4-((6-((6-fluoro-3H-imidazo[4,5-b]pyridin-3-yl)methyl)benzo[d]thiazol-2-yl)amino)cyclohexyl)methanol]
IC50 (CSF1R [1]): 200 to 500 nM
IC50 (M-NFS-60 cells): 400 to 1500 nM
Kd (CSF1R [2]): 5 to 20 nM
Kinase specificity S(10) [3]: B (0.01<B≤0.02)

SMILES: OC[C@H]1CC[C@@H](Nc2nc3ccc(Cn4cnc5cc(F)cnc54)cc3s2)CC1 [Example 180, (cis-4-((6-((6-fluoro-3H-imidazo[4,5-b]pyridin-3-yl)methyl)benzo[d]thiazol-2-yl)amino)cyclohexyl)methanol]
IC50 (CSF1R [1]): > 500 nM
IC50 (M-NFS-60 cells): > 1500 nM
Kd (CSF1R [2]): 20 to 50 nM
Kinase specificity S(10) [3]: A (A≤0.01)

SMILES: CS[C@@H]1CCCC[C@H]1Nc1nc2ccc(Cn3cnc4cc(F)cnc43)cc2s1 [Example 181, 6-((6-fluoro-3H-imidazo[4,5-b]pyridin-3-yl)methyl)-N-((1R,2R)-2-(methylthio)cyclohexyl)benzo[d]thiazol-2-amine]
IC50 (CSF1R [1]): 200 to 500 nM
IC50 (M-NFS-60 cells): 400 to 1500 nM
Kd (CSF1R [2]): 5 to 20 nM
Kinase specificity S(10) [3]: B (0.01<B≤0.02)

SMILES: O[C@@H]1CCCC[C@H]1Nc1nc2ccc(Cn3cnc4cc(OC5COC5)ccc43)cc2s1 [Example 182, (1R,2R)-2-((6-((5-(oxetan-3-yloxy)-1H-benzo[d]imidazol-1-yl)methyl)benzo[d]thiazol-2-yl)amino)cyclohexanol]
IC50 (CSF1R [1]): ≤ 50 nM
IC50 (M-NFS-60 cells): 50 to 400 nM
Kd (CSF1R [2]): ≤ 5 nM
Kinase specificity S(10) [3]: A (A≤0.01)

SMILES: C=Cc1ccc2c(c1)ncn2Cc1ccc2nc(N[C@@H]3CCCC[C@H]3O)sc2c1 [Example 183, (1R,2R)-2-((6-((5-vinyl-1H-benzo[d]imidazol-1-yl)methyl)benzo[d]thiazol-2-yl)amino)cyclohexanol]
IC50 (CSF1R [1]): ≤ 50 nM
IC50 (M-NFS-60 cells): ≤ 50 nM
Kd (CSF1R [2]): ≤ 5 nM
Kinase specificity S(10) [3]: B (0.01<B≤0.02)

SMILES: O[C@@H]1CCCC[C@H]1Nc1nc2ccc(Cn3cnc4cc(C5=CCCCC5)ccc43)cc2s1 [Example 184, (1R,2R)-2-((6-((5-(cyclohex-1-en-1-yl)-1H-benzo[d]imidazol-1-yl)methyl)benzo[d]thiazol-2-yl)amino)cyclohexanol]
IC50 (CSF1R [1]): 200 to 500 nM
IC50 (M-NFS-60 cells): 50 to 400 nM
Kd (CSF1R [2]): 5 to 20 nM
Kinase specificity S(10) [3]: A (A≤0.01)

SMILES: Cn1cc(-c2ccc3c(c2)ncn3Cc2ccc3nc(N[C@@H]4CCCC[C@H]4O)sc3c2)c(C(F)(F)F)n1 [Example 185, (1R,2R)-2-((6-((5-(1-methyl-3-(trifluoromethyl)-1H-pyrazol-4-yl)-1H-benzo[d]imidazol-1-yl)methyl)benzo[d]thiazol-2-yl)amino)cyclohexanol]
IC50 (CSF1R [1]): 50 to 200 nM
IC50 (M-NFS-60 cells): 50 to 400 nM
Kd (CSF1R [2]): 5 to 20 nM
Kinase specificity S(10) [3]: B (0.01<B≤0.02)

SMILES: O[C@@H]1CCCC[C@H]1Nc1nc2ccc(Cc3cnc4cccc(F)n34)cc2s1 [Example 186, (1R,2R)-2-((6-((5-fluoroimidazo[1,2-a]pyridin-3-yl)methyl)benzo[d]thiazol-2-yl)amino)cyclohexanol]
IC50 (CSF1R [1]): 200 to 500 nM
IC50 (M-NFS-60 cells): 400 to 1500 nM
Kd (CSF1R [2]): 5 to 20 nM
Kinase specificity S(10) [3]: B (0.01<B≤0.02)

SMILES: O[C@@H]1CCCC[C@H]1Nc1nc2ccc(Cc3cnc4cc(N5CCOCC5)ccn34)cc2s1 [Example 187, (1R,2R)-2-((6-((7-morpholinoimidazo[1,2-a]pyridin-3-yl)methyl)benzo[d]thiazol-2-yl)amino)cyclohexanol]
IC50 (CSF1R [1]): 50 to 200 nM
IC50 (M-NFS-60 cells): 400 to 1500 nM
Kd (CSF1R [2]): 5 to 20 nM
Kinase specificity S(10) [3]: A (A≤0.01)

The next lines start with results.

IC50 (CSF1R [1]): 50 to 200 nM
Kd (CSF1R [2]): 5 to 20 nM
Kinase specificity S(10) [3]: A (A≤0.01)
SMILES: CN1CCN(c2ccn3c(Cc4ccc5nc(N[C@@H]6CCCC[C@H]6O)sc5c4)cnc3c2)CC1 [Example 188, (1R,2R)-2-((6-((7-(4-methylpiperazin-1-yl)imidazo[1,2-a]pyridin-3-yl)methyl)benzo[d]thiazol-2-yl)amino)cyclohexanol]
IC50 (M-NFS-60 cells): 400 to 1500 nM

IC50 (CSF1R [1]): 200 to 500 nM
Kd (CSF1R [2]): 5 to 20 nM
Kinase specificity S(10) [3]: A (A≤0.01)
SMILES: Cc1cc(C)c2c(c1)ncn2Cc1ccc2nc(N[C@@H]3CCCC[C@H]3O)sc2c1 [Example 189]
IC50 (M-NFS-60 cells): 50 to 400 nM

IC50 (CSF1R [1]): > 500 nM
Kd (CSF1R [2]): 20 to 50 nM
Kinase specificity S(10) [3]: A (A≤0.01)
SMILES: Cc1cc(Br)cc2ncn(Cc3ccc4nc(N[C@@H]5CCCC[C@H]5O)sc4c3)c12 [Example 190, (1R,2R)-2-((6-((5-bromo-7-methyl-1H-benzo[d]imidazol-1-yl)methyl)benzo[d]thiazol-2-yl)amino)cyclohexanol]
IC50 (M-NFS-60 cells): 50 to 400 nM

IC50 (CSF1R [1]): > 500 nM
Kd (CSF1R [2]): 20 to 50 nM
Kinase specificity S(10) [3]: A (A≤0.01)
SMILES: Fc1cnc2c(c1)ncn2Cc1ccc2nc(Nc3ccccc3)sc2c1 [Example 191, 6-((6-fluoro-3H-imidazo[4,5-b]pyridin-3-yl)methyl)-N-phenylbenzo[d]thiazol-2-amine]
IC50 (M-NFS-60 cells): > 1500 nM

IC50 (CSF1R [1]): 200 to 500 nM
Kd (CSF1R [2]): 5 to 20 nM
Kinase specificity S(10) [3]: B (0.01<B≤0.02)
SMILES: OC[C@@H]1CCC[C@@H](Nc2nc3ccc(Cn4cnc5cc(F)cnc54)cc3s2)C1 [Example 192, ((1R,3R)-3-((6-((6-fluoro-3H-imidazo[4,5-b]pyridin-3-yl)methyl)benzo[d]thiazol-2-yl)amino)cyclohexyl)methanol]
IC50 (M-NFS-60 cells): 400 to 1500 nM

IC50 (CSF1R [1]): ≤ 50 nM
Kd (CSF1R [2]): 5 to 20 nM
Kinase specificity S(10) [3]: A (A≤0.01)
SMILES: O[C@@H]1[C@H](O)CCC[C@H]1Nc1nc2ccc(Cn3cnc4cc(F)cnc43)cc2s1 [Example 193, (1R,2S,3R)-3-((6-((6-fluoro-3H-imidazo[4,5-b]pyridin-3-yl)methyl)benzo[d]thiazol-2-yl)amino)cyclohexane-1,2-diol]
IC50 (M-NFS-60 cells): ≤ 50 nM

IC50 (CSF1R [1]): 50 to 200 nM
Kd (CSF1R [2]): 5 to 20 nM
Kinase specificity S(10) [3]: B (0.01<B≤0.02)
SMILES: OC[C@H]1CCC[C@@H](Nc2nc3ccc(Cn4cnc5cc(F)cnc54)cc3s2)C1 [Example 194, ((1S,3R)-3-((6-((6-fluoro-3H-imidazo[4,5-b]pyridin-3-yl)methyl)benzo[d]thiazol-2-yl)amino)cyclohexyl)methanol]
IC50 (M-NFS-60 cells): 50 to 400 nM

IC50 (CSF1R [1]): 200 to 500 nM
Kd (CSF1R [2]): 20 to 50 nM
Kinase specificity S(10) [3]: A (A≤0.01)
SMILES: N#Cc1cc2ncn(Cc3ccc4nc(N[C@@H]5CCCC[C@H]5O)oc4c3)c2cc1Cl [Example 195, 6-chloro-1-((2-(((1R,2R)-2-hydroxycyclohexyl)amino)benzo[d]oxazol-6-yl)methyl)-1H-benzo[d]imidazole-5-carbonitrile]
IC50 (M-NFS-60 cells): 400 to 1500 nM
